The source of these data is US10905704B2, “Agents and methods using thereof for the prevention and treatment of stem cell muscle disorders” (ECOLE POLYTECHNIQUE FEDERALE DE LAUSANNE (EPFL), priority 2015, dated 2021).

Test [1] relates to MuSCs. Description: Senescence and apoptosis marker staining of MuSCs from NR-treated mice (γH2AX, β-galactosidase, cleaved CASP3). Type of test: cell-based, C57BL/6J mice. The method, then:
Histology. TA muscles were harvested and the immunestaining was performed as described in Example 2. The following antibodies were used: anti-γH2AX […] (Millipore), anti-activated-caspase3 (Cell signaling). Secondary antibodies were coupled to Alexa-488 or Alexa-568 fluorochromes (Life technology), and nuclei were stained with DAPI (Invitrogen). β-galactosidase assay. MuSCs were sorted directly and cultured primary MuSCs were grown on 8 chamber slides (Thermo Scientific). Senescence-associated β-galactosidase activity was detected using the senescence β-galactosidase staining kit (Cell signaling), according to manufacturer's instructions. Cell culture and treatments. FACS sorted MuSCs were grown on a 10% Matrigel (Corning)-coated dish and flasks with Fams F-10 media (Gibco), supplemented with 20% fetal bovine serum (FBS, Gibco), 2.5 ng/ml basic fibroblast growth factor (bFGF, Sigma) and penicillin/streptomycin (1×, Gibco). Dishes were coated with 10% growth factor-free Matrigel solution on ice for 7 min then transferred to a 37° C. cell culture incubator overnight before use. Cells were grown for three generations in vitro before experiments with cells plated and passaged at 10^3 cells/ml and 50% confluencies, respectively. C2C12 mouse myoblasts were grown in DMEM (4.5 g/1 glucose, Gibco) supplemented with 10% FBS and penicillin/streptomycin (1×, Gibco).

The test system of test [2] is C2C12 myoblasts. Put plainly: Western blot of senescence and apoptosis markers in C2C12 myoblasts. It counts as cell-based, mouse. As to conditions: late passage C2C12 myoblasts, 6-hour NR treatment. The method, then:
Cell culture and treatments. FACS sorted MuSCs were grown on a 10% Matrigel (Corning)-coated dish and flasks with Fams F-10 media (Gibco), supplemented with 20% fetal bovine serum (FBS, Gibco), 2.5 ng/ml basic fibroblast growth factor (bFGF, Sigma) and penicillin/streptomycin (1×, Gibco). Dishes were coated with 10% growth factor-free Matrigel solution on ice for 7 min then transferred to a 37° C. cell culture incubator overnight before use. Cells were grown for three generations in vitro before experiments with cells plated and passaged at 10^3 cells/ml and 50% confluencies, respectively. C2C12 mouse myoblasts were grown in DMEM (4.5 g/1 glucose, Gibco) supplemented with 10% FBS and penicillin/streptomycin (1×, Gibco). Western blotting. C2C12 cells were lysed in a buffer composed of 50 mM Tris, 150 mM KCl, EDTA 1 mM, NP40 1%, nicotinamide 5 mM, sodium butyrate 1 mM and protease inhibitors cocktail (Roche) at pH 7,4. Proteins were separated by SDS-PAGE and transferred onto nitrocellulose membranes. Blocking and antibody incubations were performed in 3% BSA. The following primary antibodies were used: anti-cleavage caspase 3 (Cell Signalling); Anti-γH2AX (Millipore); anti-β-actin (Sigma). All secondary antibodies were from Jackson Immunoresearch. […]
For orientation: A western blot detects proteins with antibodies after separation by electrophoresis.

The subject of test [3] is MuSCs. Description: MuSCs transplantation from NR-treated aged donors into Mdx mice. Type of test: in vivo. The following applies: MuSCs from NR-treated aged donors vs controls, Mdx recipients, 4 weeks. The method, then:
MuSCs transplantation. 5,000-8,000 double-sorted MuSCs isolated from NR or normal chow diet C57B/6J mice were resuspended in 10 μl of F10 media with 20% FBS and injected directly into cardiotoxin (CTX) pre-injured tibialis anterior (TA) muscle of Mdx mice 24hrs after the injury. The CTX pre-injury was performed as described above. Recipient mice were sacrificed 4 weeks after transplantation, TA muscle were harvested and prepared for cryosection.
(§1) Histology. TA muscles were harvested from anaesthetized mice and immediately frozen in Tissue-TEK® OCT compound (PST). 8-μm cryosections were collected and fixed with 4% paraformaldehyde, which are either stained with haematoxylin/eosin (HE) or antibodies. For immunostainings, heat activated antigen retrieval was performed in pH 6.0 citrate buffer for 10 min at 65° C. After washing with PBS-0.1% tween 20 (PBST), the sections were blocked with 10% affinipure Fab goat anti mouse IgG (Jackson Immunoresearch) in PBST for 60 min and PBST containing 2% BSA and 5% goat serum for 30 min at room temperature. Primary antibodies were then applied over night at 4° C. The following antibodies were used: anti-eMHC (Developmental Studies Hybridoma Bank, DSHB, University of Iowa), anti-Pax7 (DSHB, University of Iowa), anti-Laminin (Sigma). Subsequently, the slides were washed in PBST and incubated with appropriate secondary antibodies and labeling dyes. […]

For test [4], the system named is muscle. Description: Cardiotoxin-induced muscle damage in NR-treated Mdx mice. It counts as in vivo. The method, then:
Cardiotoxin-induced muscle damage. Animals were anesthetized using Isoflurane in oxygen from a precision vaporizer. 50 μl of 20 μM Naje mossambica mossambica cardiotoxin (Sigma) was injected intramuscularly cross the skin and directly into the tibialis anterior (TA) muscle. Mice were sacrificed at 7 and 14 days after injury. TA muscles were immediately embedded in Thermo Scientific™ Shandon™ Cryomatrix™ and frozen in isopentane, cooled in liquid nitrogen, for 2 mins before being transferred to dry ice and stored at −80° C.
as §1, with “(Sigma).” for “(Sigma). Subsequently, the slides were washed in PBST and incubated with appropriate secondary antibodies and labeling dyes.”

Test [5] in a line: Grip strength test. Type of test: in vivo, C57BL/6J mice. As to conditions: aged mice, NR diet, FIG. 3G. The method, then: Grip strength test. Muscle strength was assessed by a grip strength behavior task. The grasp strength of each mouse for all four limbs was measured on a pull-grid assembly connected to a grip strength meter (Columbus Instruments). The mouse was drawn along a straight line parallel to the grid until the grip is broken, providing the peak force in grams. This was repeated 4 times with 5 minute intervals between measurements.

The mark [6] stands for this setting: MuSCs from NR-treated mice cultured ex vivo for three generations.

On to `NC(=O)c1ccc[n+]([C@@H]2O[C@H](CO)[C@@H](O)[C@H]2O)c1` [NR, nicotinamide riboside], for which, in test [1] (setting [6]), the “cleaved caspase-3 (CASP3) immunostaining” value was “reductions” and the γH2AX positive nuclei result is “reductions”. For the same molecule, in test [1] (freshly isolated MuSCs from aged mice, NR diet, FIG. 4A,B), the γH2AX positive nuclei result is on record as “staining was reduced”. In test [1] (freshly sorted MuSCs from aged mice, NR diet), the “β-galactosidase staining (senescence)” value is recorded as “reduction of the nuclear damage response was confirmed”. In test [2], the “expression of cell senescence and apoptosis markers (γH2AX, cleaved caspase3)” value is “reduced the expression of cell senescence and apoptosis markers”. In addition, in test [3], the “replenishment of MuSC compartment after transplantation” value is reported as “more effectively replenished the MuSC compartment”. In addition, the “myogenesis of dystrophin-positive myofibers after transplantation” value in test [3] (FIG. 3N) is given as “stimulated myogenesis of dystrophin-positive myo fibers”. The “regenerated muscle fibers (eMyHC)” value in test [4] (7 days after CTX, FIG. 6F) was “increase in regenerated muscle fibers”. Besides, in test [4] (7 days of recovery, FIG. 6L), the “CTX-induced muscle regeneration (H/E)” value is recorded as “muscle regeneration was improved”. Moreover, the limb grip strength entry in test [5] is “improvements”.
